Results reported in patent US20130040331A1, “LABEL-FREE METHODS RELATED TO hERG POTASSIUM ION [sequence]” (CORNING INCORPORATED, priority 2009, published 2013).

Key:
hERG channel [1] = target: T1, hERG channel (Homo sapiens, UniProt Q12809); conditions: oocytes, cited from earlier work
hERG channel [2] = target: T1, hERG channel; assay: Automated patch clamp recording of hERG current using IonWorks, CHO-hERG cells; conditions: for effect on hERG tail current: 50 μM, tail current at return to −35 mV; for effect on hERG current: final compound concentration 50 μM
Method: CHO—K1 cells stably expressing hERG channel (CHO-hERG) were cultured in T175 flask till about 70% confluent. Cells were washed twice with PBS, then 2.5 ml 0.25% Trypsin/EDTA was mixed with 2.5 ml PBS and added to the T175 flask. Cells were incubated about 2 minutes with the diluted Trypsin/EDTA solution at 37° C., then were continuously incubated about 3 minutes at room temperature. 20 ml fresh medium were added to suspend the cells and transfer to a 50 ml tube. Cells were centrifuged down at 750 rpm for 5 minutes. The extra medium was removed and cells were resuspended in 6 ml External Buffer (137 mM NaCl, 4 mM KCl, 1.8 mM CaCl2, 1 mM MgCl2, 10 mM HEPES, 10 mM glucose, pH 7.4). Then cells were centrifuged again at 450 rpm for another 5 minutes. Finally cells were resuspended in 4 ml the External Buffer, cell number was counted using a hemacytometer. Cell suspension was diluted to 2.5×10^6 cells/ml with the External Buffer. 4 ml of the resuspended cells were added to the cell reservoir in IonWorks. The Internal solution used contains: 40 mM KCl, 100 mM K-Gluconate, 3.2 mM MgCl2, 2 mM CaCl2, 5 mM HEPES, pH 7.25 (adjusted with KOH). 5 mg Amphotericin B from 200 ul DMSO stock was added to 65 ml the Internal solution and mixed well to achieve electrical access to the interior of cells on the patch plate.
Compounds were prepared from 10 mM DMSO stock and diluted in the External Buffer to make 3× compound solution. […] of the 3× compound solution was transferred to a 384 well plate in Row A, B, C and D. PD11857 (Sigma-Aldrich), a reported hERG channel activator was used as activator positive control (final concentration 30 and 50 μM). hERG blocker dofetilide was used as blocker positive control (final concentration 100 nM). The final DMSO concentration in the IonWorks Quattro PatchPlate PPC plate (Cat#9000-0902, Molecular Devices) was 0.5%. Final compound concentration was 50 μM. Each compound was added to four wells of one PPC plate.
hERG currents were recorded on IonWorks Quattro (Molecular Devices). To record hERG current, the cells were clamped at −80 mV initially, then followed by a 5-s depolarization at +40 mV to activate the channels. Tail currents were measured during an ensuing return to −35 mV. Data analysis were done using IonWorks Quttro® System Software version 2.0.4.4. Data from wells with seal resistance less than 50 MΩ or hERG tail currents less than 0.1 nA were filtered out. […] Inhibitor hits were selected if hERG tail currents ratio (post/pre-compound) is less than mean-2SD of the average DMSO control.
To record hERG current, the cells were clamped at −80 mV initially, then followed by a 5-s depolarization at +40 mV to activate the channels (phase a in FIG. 10A). Tail currents were measured during an ensuing return to −35 mV for 2 seconds (phase b in FIG. 10A). Final holding potential at −70 mV (phase c in FIG. 10B).

HEK293 cells = assay: Label-free RWG biosensor (Epic) DMR assay, agonism mode, native HEK293 cells without hERG; assay type: cell-based, human; conditions: compound at 16 micromolar
Method: Epic® wavelength interrogation system (Corning Inc., Corning, N.Y.) was used for whole cell sensing. This system consists of a temperature-control unit, an optical detection unit, and an on-board liquid handling unit with robotics. The detection unit is centered on integrated fiber optics, and enables kinetic measures of cellular responses with a time interval of ˜15 sec.
Cells were plated in 384-well Epic® cell culture treated plate (Corning Cat#5040) 16-20 hours before assay (15000 cells/well for HEK293 and HEK-hERG cells, 30000 cells/well for HT29 cells). For both HEK-hERG and its parental HEK293 cells, each well was coated with 10 μl 5 μg/ml fibronectin. One hour before assay, cells were washed twice on a BioTek ELx405 Select washer with Hank's Balanced Salt Solution (HBSS) containing 20 mM Hepes. Cells were incubated in 40 μl/well HBSS at 28° C. inside the Epic system for one hour. For each assay, a 2-min baseline was initiated, followed by addition of 10 μl compound solutions (5×) and the cell responses were recorded continuously for one hour.
All studies were carried out at a controlled temperature (28° C.). At least two independent sets of experiments, each with at least three replicates, were performed. […] All dose-dependent responses were analyzed using non-linear regression method with the GraphPad Prism 5. […]

hERG channel [3] = target: T1, hERG channel; conditions: 10 micromolar; cited from earlier work
HEK-hERG cells = assay type: cell-based, human; conditions: microscopic imaging, data not shown
Method: To confirm these findings, several follow-up studies were carried out.

T1 sequence (Q12809 whole entry): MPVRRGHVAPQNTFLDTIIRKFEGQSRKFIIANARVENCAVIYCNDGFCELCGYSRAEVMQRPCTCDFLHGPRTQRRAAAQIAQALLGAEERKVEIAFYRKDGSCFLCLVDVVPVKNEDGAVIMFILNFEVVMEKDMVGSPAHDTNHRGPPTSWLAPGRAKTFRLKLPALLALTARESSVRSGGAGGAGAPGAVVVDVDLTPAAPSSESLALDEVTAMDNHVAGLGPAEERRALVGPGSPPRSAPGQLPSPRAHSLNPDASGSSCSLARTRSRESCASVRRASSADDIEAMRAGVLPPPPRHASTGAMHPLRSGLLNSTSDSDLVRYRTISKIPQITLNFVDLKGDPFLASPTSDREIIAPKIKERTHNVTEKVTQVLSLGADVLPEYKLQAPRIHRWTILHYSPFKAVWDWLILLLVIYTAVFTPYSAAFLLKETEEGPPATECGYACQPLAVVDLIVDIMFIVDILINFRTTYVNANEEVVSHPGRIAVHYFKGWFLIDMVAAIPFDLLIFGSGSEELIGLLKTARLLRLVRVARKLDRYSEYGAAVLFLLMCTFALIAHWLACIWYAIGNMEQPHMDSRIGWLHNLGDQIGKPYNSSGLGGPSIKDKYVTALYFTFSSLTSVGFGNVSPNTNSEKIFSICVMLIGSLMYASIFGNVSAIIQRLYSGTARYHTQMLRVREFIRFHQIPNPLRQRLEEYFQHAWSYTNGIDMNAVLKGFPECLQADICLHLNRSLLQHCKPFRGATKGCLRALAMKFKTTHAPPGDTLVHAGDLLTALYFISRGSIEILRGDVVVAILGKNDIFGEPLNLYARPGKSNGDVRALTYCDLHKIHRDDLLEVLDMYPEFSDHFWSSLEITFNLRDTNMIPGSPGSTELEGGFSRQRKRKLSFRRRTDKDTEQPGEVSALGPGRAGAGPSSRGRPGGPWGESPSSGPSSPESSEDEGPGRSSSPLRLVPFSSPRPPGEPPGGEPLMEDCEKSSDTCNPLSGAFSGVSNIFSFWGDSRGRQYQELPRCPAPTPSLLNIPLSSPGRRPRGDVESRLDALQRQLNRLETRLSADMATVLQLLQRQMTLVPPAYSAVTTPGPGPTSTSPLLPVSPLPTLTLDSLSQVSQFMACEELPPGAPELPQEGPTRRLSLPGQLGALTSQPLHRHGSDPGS

Compound	amplitude of outward currents evoked by depolarizing pulses (hERG channel [1]; 100 to 500 μM)	activation and deactivation rate of hERG channels (hERG channel [1])	effect on hERG tail current (hERG channel [2])	effect on hERG current (hERG channel [2])	DMR signal in HEK293 cells (HEK293 cells)	effect on hERG current (hERG channel [2]; listed as Mallotoxin)	shift of half maximal activation voltage (V1/2) to the hyperpolarizing direction (hERG channel [3])	cell toxicity at high doses (HEK-hERG cells)
O=C(O)c1ccccc1Nc1cccc(C(F)(F)F)c1 [flufenamic acid]	enhanced the amplitude of outward currents	accelerated the activation rate of hERG channels and decelerated their deactivation	significantly increased	weak hERG current activator	–	–	–	–
CC(=O)c1c(O)c(C)c(O)c(Cc2c(O)c3c(c(C(=O)/C=C/c4ccccc4)c2O)OC(C)(C)C=C3)c1O [mallotoxin]	–	–	significantly increases	significantly increases	net-zero DMR signal	strong hERG current activator	more than 25 mV	caused cell apoptosis
